Reference: patent publication US10308682B2, “Inhibition of tumor growth with aggregates of small molecules” (BRANDEIS UNIVERSITY, priority 2013, dated 2019)

Tests used:
[1] = cited from earlier work
[2] = Self-assembly: gelation and aggregation ability; format: physicochemical
Description: FIG. 22 depicts the characteristics and cytotoxicity of a structural analog of 1.
Another often overlooked feature of amyloid oligomers is that their cytotoxicity is independent of chirality of the amino acids.

HeLa cells = assay: Cell viability assay (MTT), HeLa cells; format: cell-based
Method: Cells in exponential growth phase were seeded in a 96 well plate at a concentration of 50,000 cell/well. The cells were allowed to attach to the wells for 24 h at 37° C., 5% CO2, then the culture medium was removed and 100 μL new culture medium containing 1 at gradient concentrations was placed into each well. After culturing at 37° C., 5% CO2 for desired time, each well was added by 10 μL of 5 mg/mL MTT 43-(4,5-Dimethylthiazol-2-yl)-2,5-diphenyltetrazolium bromide), and the plated cells were incubate at dark for 4 h. 100 μL 10% SDS with 0.01 M HCl was added to each well to stop the reduction reaction and to dissolve the purple. After incubation of the cells at 37° C. for overnight, the viability is measured. Data represent the mean±standard deviation of three independent experiments.
The estimation of the threshold concentration of aggregation (320-340 μM) for 1 allows us to examine the cytotoxicity of 1 in monomer and molecular aggregate forms. We first tested the cytotoxicity of 1 towards HeLa cells, the most widely studied cancer cell line, below and above the threshold concentration.

Row | Compound | IC50 (cytotoxicity of aberrant protein aggregates) [1] | gelation ability compared with 1 [2] | cytotoxicity (MTT, HeLa cells) compared with 1 (HeLa cells)
1 | transthyretin | 0.2 mg/mL |  | 
2 | O=C(Cc1ccc2ccccc2c1)N[C@@H](Cc1ccc(O)cc1)C(=O)N[C@@H](Cc1ccc(O)cc1)C(=O)O [Nap-YY] |  | poorer gelation ability | lower cytotoxicity than 1
